By IC50 is commonly meant the concentration that inhibits the measured activity by half. Lower therefore signals greater potency.

Structures are written as SMILES.

Our source for the IC50 values is ChEMBL document CHEMBL1150773, “Novel donepezil-based inhibitors of acetyl- and butyrylcholinesterase and acetylcholinesterase-induced beta-amyloid aggregation” (J Med Chem, 2008).

The target in assay [1] is T1, Acetylcholinesterase (Bos taurus, UniProt P23795).
T1 sequence (P23795 whole entry): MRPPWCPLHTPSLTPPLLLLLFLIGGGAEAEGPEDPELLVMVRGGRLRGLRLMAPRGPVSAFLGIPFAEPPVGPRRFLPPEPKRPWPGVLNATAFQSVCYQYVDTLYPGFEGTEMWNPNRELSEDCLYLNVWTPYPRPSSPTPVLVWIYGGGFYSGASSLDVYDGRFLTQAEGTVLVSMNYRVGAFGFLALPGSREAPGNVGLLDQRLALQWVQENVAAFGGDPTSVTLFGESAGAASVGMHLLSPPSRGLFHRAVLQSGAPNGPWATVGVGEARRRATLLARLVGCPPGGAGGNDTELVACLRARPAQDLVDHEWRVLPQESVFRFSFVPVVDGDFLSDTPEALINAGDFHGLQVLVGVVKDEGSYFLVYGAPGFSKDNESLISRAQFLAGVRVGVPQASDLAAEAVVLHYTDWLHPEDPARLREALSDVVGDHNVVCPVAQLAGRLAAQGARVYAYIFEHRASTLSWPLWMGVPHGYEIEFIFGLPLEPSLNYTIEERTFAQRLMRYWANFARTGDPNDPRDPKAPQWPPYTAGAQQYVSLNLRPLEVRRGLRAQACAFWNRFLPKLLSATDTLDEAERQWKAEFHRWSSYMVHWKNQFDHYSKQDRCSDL
Description: Inhibition of bovine erythrocyte AChE by Ellman's assay

For assay [2], the target named is Cholinesterase (Homo sapiens, UniProt P06276).
Sequence of Cholinesterase (P06276 whole entry): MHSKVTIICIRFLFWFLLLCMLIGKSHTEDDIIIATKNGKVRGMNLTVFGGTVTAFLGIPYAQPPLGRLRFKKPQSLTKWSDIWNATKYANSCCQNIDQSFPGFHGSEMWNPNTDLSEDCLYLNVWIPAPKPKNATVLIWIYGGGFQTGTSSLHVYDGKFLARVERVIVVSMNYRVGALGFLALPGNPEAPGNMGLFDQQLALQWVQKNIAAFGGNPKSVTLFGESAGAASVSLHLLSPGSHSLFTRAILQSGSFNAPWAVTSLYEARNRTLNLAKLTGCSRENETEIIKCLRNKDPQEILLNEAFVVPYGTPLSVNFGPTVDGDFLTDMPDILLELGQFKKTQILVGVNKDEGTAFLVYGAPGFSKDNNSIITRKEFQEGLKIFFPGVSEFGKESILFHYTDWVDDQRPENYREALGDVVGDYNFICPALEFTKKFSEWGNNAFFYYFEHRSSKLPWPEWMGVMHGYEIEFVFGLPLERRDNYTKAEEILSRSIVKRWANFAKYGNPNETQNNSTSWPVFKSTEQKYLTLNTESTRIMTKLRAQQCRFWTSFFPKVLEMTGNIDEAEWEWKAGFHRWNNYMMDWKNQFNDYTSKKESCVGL
Description: Inhibition of human serum BChE by Ellman's assay
Assay [3] deals with Acetylcholinesterase (Homo sapiens, UniProt P22303).
Sequence of Acetylcholinesterase (Homo sapiens, UniProt P22303) (P22303 whole entry): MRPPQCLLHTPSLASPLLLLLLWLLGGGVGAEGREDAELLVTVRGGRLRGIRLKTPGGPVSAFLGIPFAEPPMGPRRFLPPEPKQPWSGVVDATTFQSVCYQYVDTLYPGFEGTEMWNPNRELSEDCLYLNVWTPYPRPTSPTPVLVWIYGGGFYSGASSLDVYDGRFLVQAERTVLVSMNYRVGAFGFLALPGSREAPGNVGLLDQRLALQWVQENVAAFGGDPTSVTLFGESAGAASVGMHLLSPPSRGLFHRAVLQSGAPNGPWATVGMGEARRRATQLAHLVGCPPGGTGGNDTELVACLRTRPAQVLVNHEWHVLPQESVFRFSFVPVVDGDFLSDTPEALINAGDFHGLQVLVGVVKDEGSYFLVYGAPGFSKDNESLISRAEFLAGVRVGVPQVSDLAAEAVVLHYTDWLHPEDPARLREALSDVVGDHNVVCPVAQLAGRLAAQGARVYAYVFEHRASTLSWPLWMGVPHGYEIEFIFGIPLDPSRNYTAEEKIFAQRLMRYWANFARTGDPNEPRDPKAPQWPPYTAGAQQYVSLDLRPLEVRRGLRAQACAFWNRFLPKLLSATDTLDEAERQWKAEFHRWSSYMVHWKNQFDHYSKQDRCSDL
Description: Inhibition of human erythrocyte AChE by Ellman's assay

In the case of `Nc1c2c(nc3cc(Cl)ccc13)CCCC2`, in assay [1], the half-inhibitory concentration (IC50) was found to be 5.73 nM.

Regarding `COc1cc2c(cc1OC)CC(CC1CCN(CCCNc3c4c(nc5cc(Cl)ccc35)CCCC4)CC1)C2`, the values for the IC50 in assay [1], in assay [2] and in assay [3] were 0.82 nM, 72.7 nM and 1.06 nM, respectively.

Take `COc1cc2c(cc1OC)CC(CC1CCN(CCCNc3c4c(nc5ccccc35)CCCC4)CC1)C2`: the IC50 in assay [1] amounted to 0.82 nM; in assay [2] it was 7.25 nM; in assay [3] it was 2.16 nM.

In the case of `COc1cc2c(cc1OC)C(=O)C(CC1CCN(CCCNc3c4c(nc5ccccc35)CCCC4)CC1)C2` (configuration not stated), the figures for the half-inhibitory concentration (IC50) in assay [1], in assay [2] and in assay [3] were 0.29 nM, 12.3 nM and 0.88 nM, respectively.

Take `COc1cc2c(cc1OC)CC(CC1CCN(CCNc3c4c(nc5cc(Cl)ccc35)CCCC4)CC1)C2`: the IC50 in assay [1] was determined as 1.86 nM; in assay [2] it was 88.7 nM; in assay [3], 2.6 nM.

As for `COc1cc2c(cc1OC)CC(CC1CCN(Cc3ccccc3)CC1)C2`, the IC50 in assay [1] turned out to be 1450 nM; in assay [2] it was 6400 nM.

For the compound `COc1cc2c(cc1OC)CC(CC1CCN(CCNc3c4c(nc5ccccc35)CCCC4)CC1)C2`, the results for the IC50 in assay [1], in assay [2] and in assay [3] were 2.28 nM, 8.06 nM and 5.13 nM, respectively.

On to `COc1cc2c(cc1OC)C(=O)C(CC1CCN(CCCNc3c4c(nc5cc(Cl)ccc35)CCCC4)CC1)C2` (configuration not stated), for which, in assay [2], the IC50 amounted to 66.3 nM.

Take `COc1cc2c(cc1OC)C(=O)C(CC1CCN(CCNc3c4c(nc5cc(Cl)ccc35)CCCC4)CC1)C2` (configuration not stated): the concentration for half-maximal inhibition (IC50) in assay [1] is 0.57 nM; in assay [2], 136 nM; in assay [3], 0.67 nM.
